The conditions of data set [1]: as measured at room temperature; cited from earlier work.
The conditions of data set [2]: cited from earlier work.
A short description of data set [3]: Transdermal flux / transdermal delivery from PIB adhesive patch (Franz diffusion cell).
Excerpt: The inventor used a Franz cell for assessing release kinetics, as described below. For testing release kinetics from transdermal monolithic patches, where a semi-solid adhesive matrix is used, the Franz cell has the following components, from top to bottom: (1) Stopper used to seal top of donor compartment; (2) Donor compartment; (3) Patch situated at very bottom of donor compartment, with adhesive side of patch attached to human cadaver skin; (4) Human cadaver skin located immediately under the patch; (5) Receiving compartment, located immediately below the skin. Receiving compartment is filled with ethanol/water solution; (6) Magnetic stirrer located at bottom of receiving compartment.
After receiving the donor human skin, the inventor prepared the skin for testing in a Franz cell by thawing the skin to room temperature, washing in distilled water and cutting in round pieces to fit the diameter of the Franz cell opening. Before placing the patch on the human skin, the inventor dried the skin with a paper tissue. The skin with the attached patch was placed between the Upper Donor Chamber and the Lower Receiving Chamber and clamped tightly. […] The test lasts typically 24 hrs and aliquots of 150 L were withdrawn from the receiving chamber after different periods of time and analyzed via HPLC. […]
Data set [4] is described as follows: Saturation concentration (solubility) of CBD in PIB adhesive, CBD added until turbidity. Format: physicochemical. An excerpt: Regarding peel strength of adhesives, the inventor used judgment and estimation for preparing the patch with 26% of tackifying resin. Escorez 5400 has been used in many adhesives but not in PIB. […] The inventor estimated the peel strength of the formulation with tackifier and without tackifier, by peeling them both from the inventor's own arm skin. To obtain saturation concentration of CBD in the PIB adhesive with 26% of tackifying resin Escorez 5400 the inventor needed to add more CBD to reach turbidity. […] It was the same as the flux from PIB saturated with CBD without tackifier.
This is expected to result in thus greater flux of CBD to a patient, where the dermal patch is in contact with the skin of a patient.

Here are results for 6 compounds from patent US20240075182A1, “ENHANCED DERMAL PATCH FOR TREATING MENSTRUAL PAIN” (REMY BIOSCIENCES, priority 2021, published 2024).

What is called pKa is the negative logarithm of the acid dissociation constant.

As to `OB(O)O` [boric acid], the pKa in data set [1] is 9.2.

As to `O=S(=O)(O)CCNC1CCCCC1` [CHES], the pKa in data set [1] is given as 9.5. In the case of `COc1cc(CNC(=O)CCCC/C=C/C(C)C)ccc1O` [Capsaicin, trans-8-methyl-N-vanillyl-6-nonenamide], in data set [2], the water solubility entry is listed as “not water-soluble”. Turning to `O=S(=O)(O)CCN1CCN(CCS(=O)(=O)O)CC1` [PIPES], the pKa in data set [1] was 6.8. For the compound `CCCCCCCC/C=C\CCCCCCCC(=O)O` [oleic acid], in data set [3] (enhancer at 3% in PIB adhesive, versus PIB without enhancer), the “transdermal delivery from PIB adhesive with enhancer” value was “double”. As to `C=C(C)[C@@H]1CCC(C)=C[C@H]1c1c(O)cc(CCCCC)cc1O` [CBD, cannabidiol], the “transdermal flux of CBD” value in data set [3] (PIB adhesive with 26% Escorez 5400 saturated with CBD, versus PIB saturated with CBD without tackifier) was “did not increase”. Further, the “concentration of the saturation of CBD in PIB adhesive” value in data set [4] (PIB adhesive with 26% of tackifying resin Escorez 5400, CBD added to reach turbidity) is reported as “about 18%”. Also, the “solubility of CBD in PIB adhesive, effect of Escorez 5400 tackifier” value in data set [4] (with Escorez 5400 tackifier versus without) was “increased”.
